Assay [1] concerns Normal Balb/C female mice. Briefly: Hematopoiesis in normal mice. The conditions noted are these: for spleen weights: 2.5 Moles/mouse/day i.p.; for number of myelocytes (femoral bone marrow): 2.6 μmoles/mouse daily 4 days. The class given is in vivo, mouse. How it is done:
Normal, otherwise untreated, female Balb/C mice weighing approximately 20 grams each received a total of 4 or 9 0.4 ml intraperitoneal injections (one per day) of either Tween-80 (0.2%) (controls), palmitoylguanosine ([…]), or palmitoyldeoxyinosine ([…]). Twenty-four hours after the 4th or 9th treatment, groups of 5 or 6 animals from each of the 3 groups were bled and then sacrificed by cervical dislocation. Spleens were removed and weighed, and complete blood cell counts performed.
Normal Balb/C female mice weighing approximately 20 grams each were given a daily 0.4 ml i.p. injection of either physiological saline (controls), palmitoylguanosine (2.6 μmoles/mouse), palmitoyldeoxyguanosine (2.6 μmoles/mouse), monopalmitoylguanosine 2′,3′-acyclic dialcohol (2.6 μmoles/mouse), and palmitoyl-8-bromoguanosine (2.6 μmoles/mouse) for 4 days. On the fifth day all 3 animals in each of the 5 groups were bled and then sacrificed by cervical dislocation. Spleens were removed and weighed, and complete blood cell counts performed. Femoral bone marrow from each mouse was collected and a differential cell count performed on marrow smears.

The subject of assay [2] is Balb/C female mice. The assay can be described thus: Hematopoietic recovery after cyclophosphamide in mice (spleen weight, blood cell counts). The format is in vivo, mouse. The note with it: Ex 48: day 7 after CP; 2.5 μmoles/mouse. The procedure:
Twenty-four hours later and each day thereafter for a total of 6 days, mice were given a 0.4 ml i.p. injection of either physiological saline (controls), guanine (5 μmoles/mouse/day), or guanosine (5 μmoles/mouse/day). On day 7 all 10 mice in each of the three groups were bled, and then sacrificed by cervical dislocation. Spleens were removed and weighed, and complete blood cell counts performed.
Twenty-four hours later and each day thereafter for a total of 6 days, mice were given a 0.4 ml i.p injection of either physiological saline (controls), Tween 80 (0.2%), guanosine (5 μmoles/mouse/day in 0.2% Tween 80), or 2.5 μmoles per mouse per day of one of the following acylated derivatives of guanosine in 0.2% Tween 80: triacetylguanosine, octanoylguanosine, lauroylguanosine, or palmitoylguanosine. On day 7 following CP administration all 10 animals from each of the 7 groups were bled, and then sacrificed by cervical dislocation. Spleens were removed and weighed, and complete blood counts performed.
Twenty-four hours later treatment was begun. Mice were given a 0.4 ml i.p. injection of either physiological saline (controls), Tween 80 (0.2%), or palmitoylguanosine (5 μmoles/mouse/day in 0.2% Tween 80). The timing of the treatments was varied within the groups. The control group was given saline on days 1-6. The mice receiving Tween 80 were treated either on days 1-4, 4-6 or 1-6. Palmitoylguanosine-treated mice were treated either on days 1-2, 1-4, 3-5, 4-6 or 1-6. If a group of mice received no Tween 80 or palmitoylguanosine on a given day, saline was administered by i.p. injection. Thus, there were 9 groups of 9 animals in all. On day 7 following CP administration all of the animals were bled and then sacrificed by cervical dislocation. Spleens were removed and weighed, and complete blood cell counts performed.
Twenty-four hours later and each day thereafter for a total of 6 days, mice were given a 0.4 ml i.p. injection of either physiological saline (controls), Tween 80 (0.5%), or one of three different doses of octanoylguanosine (0.5, 2.5, or 5 μmoles/mouse/day in 0.5% Tween 80). On day 7 following CP administration all 9 animals from each of the […] were bled and then sacrificed by cervical dislocation. Spleens were removed and weighed, and complete blood cell counts performed.
Twenty-four hours later and each day thereafter for a total of 6 days, mice were given a 0.4 ml i.p. injection of either physiological saline (controls), Tween 80 (0.5%), or octanoylguanosine (5.0 μmoles/mouse/day in 0.5% Tween 80). On day 7 following CP administration all 10 animals from each of the 3 groups were bled and then sacrificed by cervical dislocation. Spleens were removed, weighed, and fixed in 10% formalin for later histological examination. Complete blood cell counts were performed on the collected blood.
Twenty-four hours later and each day thereafter for a total of 6 days, mice were given a 0.4 ml i.p. injection of either physiological saline (controls), benzoylguanosine (2.5 μmoles/mouse/day in 0.2% Tween 80), or palmitoylguanosine (2.5 μmoles/mouse/day in 0.2% Tween 80). On days 7 and 10 following CP administration 8 animals from each of the 3 groups were bled and then were sacrificed by cervical dislocation. Spleens were removed and weighed, and complete blood cell counts performed.
Twenty four hours later and each day thereafter for a total of 4 or 6 days, mice were given a 0.4 ml i.p. injection of either physiological saline (controls), palmitoyldeoxyinosine (2.5 μmoles/mouse), or palmitoyl-xanthosine (2.5 μmoles/mouse). On days 5 and 7 following CP administration 6 of the 12 animals in each of the 3 groups were bled and then sacrificed by cervical dislocation. Spleens were removed and weighed, and complete blood cell counts performed.

The test system of assay [3] is Balb/C female mice. Described as above. The class given is in vivo, mouse.
Assay [4] deals with IL-3-dependent bone marrow cells. The assay can be described thus: Apoptosis of IL-3-dependent bone marrow cells deprived of IL-3 (trypan blue exclusion). The format is cell-based, mouse.
Experimental: Bone marrow cells were obtained by flushing the femurs of three male B6D2F1 mice. The cells were plated at 5.0×10^5/ml in MEM plus 10% fetal calf serum and 25 Units/ml of recombinant IL-3 for 24-48 hours. Non-adherent cells were then separated from adherent cells and maintained for an additional twelve days. IL-3 washed from cells, and cells were plated in MEM plus 10% fetal calf serum in the presence or absence of IL-3 and with or without the addition of palmitoyldeoxyguanosine (10 micrograms per milliliter) or deoxyguanosine (10 micrograms per milliliter). Cells were counted using the trypan blue exclusion method, and the percent of dead cells (trypan blue positive) was determined at 24, 40, 60 and 84 hours following the wash.
[5] abbreviates: Ex 48: day 5 after CP, 2.5 μmoles/mouse.
Where [6] appears, read: Ex 50: day 5 after CP, 2 μmoles/mouse.

Take `CCCCCCCCCCCCCCCC(=O)OC[C@H]1O[C@@H](n2cnc3c(=O)[nH]cnc32)C[C@@H]1O`: the spleen weights result in assay [1] (Ex 44: day 5, 4 injections) is “significantly greater”; in assay [1] (Ex 44: day 10, 9 injections, vs Tween 80), “significantly greater”. Besides, the neutrophil counts result in assay [1] (Ex 44: day 10, 9 injections) is “significantly greater”; with Balb/C female mice [3] (setting [5]), “significantly elevated”. Further, the total leukocyte counts entry in assay [1] (Ex 44: day 10, 9 injections) is “significantly greater”; in the assay on Balb/C female mice [3] (setting [5]) it was “significantly elevated”. Further, in the assay on Balb/C female mice [2], the Neutrophils entry is on record as “significantly increased”. Besides, the total leukocytes entry with Balb/C female mice [2] is on record as “significantly increased”. Besides, the spleen weight entry was “significantly elevated” in the assay on Balb/C female mice [3] (Ex 48: day 5 after CP, 2.5 μmoles/mouse i.p. daily); “significantly increased” in the assay on Balb/C female mice [3] (Ex 48: day 7 after CP, 2.5 μmoles/mouse); “significantly elevated” in the assay with Balb/C female mice [3] (setting [6]).

As to `Nc1nc2c(ncn2[C@H]2C[C@H](O)[C@@H](CO)O2)c(=O)[nH]1` [dG, deoxyguanosine], the “% Dead Cells” value was found to be 15.5 ± 0.5% in assay [4] (24 hr after IL-3 wash, PdG or dG 10 micrograms per milliliter without IL-3, +IL3 = with IL-3); 21.5 ± 3.5 % in assay [4] (40 hr after IL-3 wash, 10 micrograms per milliliter); 46.3 ± 10.3% in assay [4] (60 hr after IL-3 wash, 10 micrograms per milliliter); 68.3 ± 6.0% in assay [4] (84 hr after IL-3 wash, 10 micrograms per milliliter).

Take `CCCCCCCCCCCCCCCC(=O)OC[C@H]1O[C@@H](n2c(Br)nc3c(=O)[nH]c(N)nc32)[C@H](O)[C@@H]1O` [palmitoyl-8-bromoguanosine]: the “number of myelocytes (femoral bone marrow)” value in assay [1] (Ex 56: fifth day) is “significantly greater”.

With “monopalmitoylguanosine 2′,3′-acyclic dialcohol”, the “number of myelocytes (femoral bone marrow)” value in assay [1] (Ex 56: fifth day) is “significantly greater”. Besides, the spleen weight entry in assay [1] (Ex 56: fifth day, 2.6 μmoles/mouse i.p. daily 4 days) is recorded as “significantly elevated”; in the assay with Balb/C female mice [3] (setting [6]), “significantly elevated”.

These data come from patent US7307166B1, “Oxpurine nucleosides and their congeners, and acyl, derivatives thereof, for improvement of hematopoiesis” (Wellstat Therapeutics Corporation, priority 1987, dated 2007).
